≈ marks a conversion by molar mass, not a printed value.
Columns and labels:
[1] = test system: Mycobacterium tuberculosis; experiment: Antitubercular activity against Mycobacterium tuberculosis H37Rv assessed as bacterial growth inhibition incubated for 14 days by agar plate method; type: functional; conditions: 336 h, time 14 day
Mycobacterium marinum = experiment: Antitubercular activity against Mycobacterium marinum strain M assessed as bacterial growth inhibition incubated for 14 days by agar plate method; type: functional; conditions: 336 h, time 14 day
[2] = test system: Mycobacterium tuberculosis; experiment: Antitubercular activity against Mycobacterium tuberculosis Erdman assessed as bacterial growth inhibition incubated for 14 days by agar plate method; type: functional; conditions: 336 h, time 14 day
[3] = test system: Mycobacterium tuberculosis; experiment: Antitubercular activity against Mycobacterium tuberculosis H37Rv assessed as bacterial growth inhibition; type: functional
[4] = test system: Mycobacterium tuberculosis; experiment: Antitubercular activity against Mycobacterium tuberculosis Erdman assessed as bacterial growth inhibition; type: functional
[5] = test system: Mycobacterium tuberculosis; experiment: Antitubercular activity against Mycobacterium tuberculosis Erdman assessed as bacterial growth inhibition incubated for 1 week by microplate alamar blue assay; type: functional, organism-based; conditions: 168 h
[6] = test system: Mycobacterium tuberculosis; experiment: Antitubercular activity against Mycobacterium tuberculosis H37Rv assessed as bacterial growth inhibition incubated for 6 days by resazurin reduction microplate assay; type: functional; conditions: 144 h, time 6 day
[7] = test system: Mycobacterium tuberculosis; experiment: Antitubercular activity against Mycobacterium tuberculosis H37Rv infected in BALB/c mouse assessed as reduction in bacterial load at 200 mg/kg, po for 10 days by CFU analysis; type: functional; conditions: time 10 day
[8] = test system: Mycobacterium tuberculosis; experiment: Antitubercular activity against Mycobacterium tuberculosis H37Rv infected in human HepG2 cells assessed as bacterial growth inhibition incubated for 4 weeks by resazurin reduction microtiter assay; type: functional, organism-based; conditions: HepG2, 672 h
[9] = test system: Mycobacterium tuberculosis; experiment: Antimycobacterial activity against Mycobacterium tuberculosis CIP103471 infected in human U-937 cells assessed as bacterial growth inhibition incubated for 7 days; type: functional; conditions: CIP103471, 168 h, time 7 day
[10] = test system: Mycobacterium tuberculosis; experiment: Antitubercular activity against Mycobacterium tuberculosis H37Rv assessed as bacterial growth inhibition by checkerboard assay; type: functional
[11] = test system: Mycobacterium tuberculosis; experiment: Antitubercular activity against Mycobacterium tuberculosis H37Rv assessed as bacterial growth inhibition in presence of clavulanate by checkerboard assay; type: functional
[12] = test system: Mycobacterium tuberculosis; experiment: Antitubercular activity against Mycobacterium tuberculosis H37Rv assessed as bacterial growth inhibition incubated for 7 days by microplate alamar blue assay; type: functional; conditions: 168 h, time 7 day
[13] = test system: Mycobacterium tuberculosis; experiment: Antitubercular activity against Mycobacterium tuberculosis H37Rv TMC102 assessed as bacterial growth inhibition; type: functional
[14] = test system: Mycobacterium tuberculosis; experiment: Antitubercular activity against Mycobacterium tuberculosis H37Rv assessed as bacterial growth inhibition by REMA analysis; type: functional
[15] = test system: Mycobacterium tuberculosis; experiment: Antimycobacterial activity against Mycobacterium tuberculosis H37Rv infected in THP-1 cells assessed as reduction in log10 CFU at MIC and measured after 2 to 7 days; type: functional; conditions: time 2-7 day
[16] = test system: Mycobacterium tuberculosis; experiment: In vivo antimycobacterial activity against Mycobacterium tuberculosis H37Rv infected in mouse assessed as reduction in log10 CFU at 1 to 2 times MIC and measured after 10 days; type: functional; conditions: time 10 day
Mycobacterium avium = experiment: Antitubercular activity against Mycobacterium avium assessed as bacterial growth inhibition; type: functional
[17] = test system: Mycobacterium tuberculosis; experiment: In vivo antimycobacterial activity against Mycobacterium tuberculosis H37Rv infected in BALB/c mouse assessed as reduction in bacterial load in lung at 200 mg/kg, po and measured after 4 weeks; type: functional
[18] = test system: Mycobacterium tuberculosis; experiment: In vivo antimycobacterial activity against Mycobacterium tuberculosis H37Rv infected in BALB/c mouse assessed as reduction in bacterial load in lung at 50 mg/kg, po and measured after 3 weeks; type: functional
[19] = test system: Mycolicibacterium smegmatis; experiment: Antitubercular activity against Mycobacterium smegmatis assessed as bacterial growth inhibition; type: functional
[20] = test system: Mycobacterium tuberculosis; experiment: In vivo antimycobacterial activity against Mycobacterium tuberculosis H37Rv infected in BALB/c mouse assessed as reduction in bacterial load in lung at 100 mg/kg, po and measured after 3 weeks; type: functional

Question: What does the source list for `Cc1cc2oc(=O)cc(-c3cccc(N)c3)c2c(C)c1-c1ccc(CN2CCOCC2)cc1`?
Answer: MIC [1]: 0.24 µM (≈ 0.106 µg/mL); MIC (Mycobacterium marinum): 0.83 µM (≈ 0.366 µg/mL); MIC [2]: 0.4 µM (≈ 0.176 µg/mL)

Question: Which results are given for `Cc1c(OCC(F)(F)F)ccnc1CSc1nc2ccccc2[nH]1` [LANSOPRAZOLE SULFIDE]?
Answer: MIC90 [3]: 1.13 µM (≈ 0.399 µg/mL); MIC90 [4]: 1.21 µM (≈ 0.428 µg/mL)

Question: `CCCCNc1nc(CC)nc2sc(C)cc12` was tested. Which IC50 [5] did it give?
Answer: The IC50 was 2.7 µM.

Question: How did the MIC [6] turn out when `O=C(/C=C/c1cccs1)N1CCN(Cc2ccc3c(c2)OCO3)CC1` was run?
Answer: Its MIC is 0.05 mg/L (≈ 0.14 µM).

Question: And the Activity [7]?
Answer: Its Activity is 0.4 log10CFU.

Question: What about the IC50 [8] of the same molecule?
Answer: Its IC50 is 0.1 mg/L (≈ 0.281 µM).

Question: `Cc1c(CN2CCN(C)CC2)cc(-c2ccc(Cl)cc2)n1-c1ccc(Cl)cc1` was tested. Which MIC [9] did it give?
Answer: The MIC was 1 mg/L (≈ 2.41 µM).

Question: For `CO[C@H]1CCC[C@H]2C1=C(C(=O)OC(C)OC(=O)OC1CCCCC1)N1C(=O)[C@H]([C@@H](C)O)[C@@H]21` (stereo partly drawn) [SANFETRINEM CILEXETIL], which MIC [10] is on record?
Answer: Its MIC is 7.5 µM.

Question: And the MIC [11]?
Answer: Its MIC is 5 µM.

Question: Which MIC [12] does the source give for `O=c1cc(-c2ccccc2O)oc2ccc(O)c(CN3CCC3)c12` here?
Answer: Its MIC is 0.45 mg/L (≈ 1.39 µM).

Question: How did the MIC [13] turn out when `O=C(Nc1ccc(F)c(F)c1F)NC12CC3CC(CC(C3)C1)C2` was run?
Answer: Its MIC is 0.1 mg/L (≈ 0.308 µM).

Question: Which results are given for `COc1ncnc(Cn2cnc3c(C(=O)NCCF)cccc32)c1C`?
Answer: MIC [14]: 1.56 µM (≈ 0.536 µg/mL); Activity [15]: 1 log10CFU; Activity [16]: >3 log10CFU

Question: For `COc1nc2ccc(Br)cc2cc1[C@@H](c1ccccc1)[C@@](O)(CCN(C)C)c1cccc2ccccc12` [BEDAQUILINE], which MIC [3] is on record?
Answer: The MIC was 0.03 mg/L (≈ 0.054 µM).

Question: And the MIC (Mycobacterium avium)?
Answer: Its MIC is 0.01 mg/L (≈ 0.018 µM).

Question: How did the Activity [17] turn out when `CCOC(=O)NC(=O)c1ccsc1NC(=O)c1nc2ccncc2s1` was run?
Answer: The Activity was >1.7 log10CFU.

Question: What about the Activity [18] of the same molecule?
Answer: The Activity was 1.7 log10CFU.

Question: What about the MIC [19] of the same molecule?
Answer: The MIC was 0.089 µM (≈ 0.0335 µg/mL).

Question: And the Activity [20]?
Answer: Its Activity is 2.3 log10CFU.
